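The compound was tested at five concentrations on cells cultured in 96-well plates, with a 48-hour exposure period. GI50 = concentration required for 50% inhibition of growth. TGI denotes the concentration required for complete inhibition of growth.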
Assays:
Assay in all cases: NCI-60 cell line screen, 48 h
[1] = test system: SNB-19 CNS
[2] = test system: COLO 205 colon
[3] = test system: SN12C renal
[4] = test system: M14 melanoma
[5] = test system: A498 renal
[6] = test system: LOX IMVI melanoma
[7] = test system: PC-3 prostate
[8] = test system: HCT-15 colon
[9] = test system: EKVX NSCLC
[10] = test system: HOP-62 NSCLC

Row | Structure (SMILES) | GI50 [1] | TGI [1] | GI50 [2] | TGI [2] | GI50 [3] | TGI [3] | GI50 [4] | TGI [4] | GI50 [5] | TGI [5] | GI50 [6] | TGI [6] | GI50 [7] | TGI [7] | GI50 [8] | TGI [8] | GI50 [9] | TGI [9] | TGI [10] | GI50 [10]
1 | O=c1c2ccccc2oc2ccc(OCCCCCCN3CCCCCC3)cc12 | 4.12 µM | 14.4 µM | 1.93 µM | 4.05 µM | 4.07 µM | 16.2 µM | 1.88 µM | 3.69 µM | 2.49 µM | 6.49 µM | 1.85 µM | 3.54 µM | 3.17 µM | 13.2 µM | 2.09 µM | 11.1 µM | 2.88 µM | 13.9 µM |  | 
2 | Cc1cc([N+](=O)[O-])c(C)c(Br)c1C |  | > 100 µM |  | > 100 µM |  | > 100 µM |  | > 100 µM |  | > 100 µM |  |  |  | > 100 µM |  | > 100 µM |  | > 100 µM | > 100 µM | 
3 | O=C(Cc1csc2nc(-c3ccc(Br)cc3)cn12)N/N=C/c1ccc(O)cc1 | 57.5 µM | > 100 µM | 43.3 µM | > 100 µM | 15.4 µM | 44.1 µM | 10.2 µM | 23.7 µM |  |  | 11.1 µM | 26.1 µM |  | 23.7 µM | 17.9 µM | 61.5 µM | 11.5 µM | 65.9 µM | 53.2 µM | 18.1 µM
4 | CC(=O)Oc1ccc2c(c1)CC[C@@H]1C2CC[C@]2(C)C(=O)NC(=O)CC12 (stereo partly drawn) |  | > 100 µM |  | > 100 µM |  | > 100 µM |  | > 100 µM |  | > 100 µM |  |  |  | > 100 µM |  |  |  | > 100 µM | > 100 µM | 
5 | Nc1[nH]c(=O)ncc1CO | > 100 µM | > 100 µM | > 100 µM | > 100 µM | > 100 µM | > 100 µM | > 100 µM | > 100 µM | > 100 µM | > 100 µM | > 100 µM | > 100 µM | > 100 µM | > 100 µM | > 100 µM | > 100 µM |  |  | > 100 µM | > 100 µM
6 | CSC1=NCC2(S1)c1ccccc1N(C(=O)OC(C)(C)C)C2N1CCCCC1 (stereo not drawn) |  |  |  |  | > 100 µM | > 100 µM | > 100 µM | > 100 µM | > 100 µM | > 100 µM |  |  | 34.7 µM | > 100 µM |  |  | > 100 µM | > 100 µM | > 100 µM | 23.4 µM
7 | COc1cccc(C2NC(=S)NC(C)=C2C(=O)Nc2ccc(Cl)c(Cl)c2)c1 (stereo not drawn) | 15.6 µM | > 50 µM | 9.41 µM | 30.5 µM | 9.14 µM | 17.1 µM | 10.3 µM | 19.3 µM |  |  | 7.93 µM | 15.1 µM | 14.3 µM | > 50 µM | 8.57 µM | 22.6 µM | 5.63 µM | 14.3 µM | 20.3 µM | 11.6 µM
8 | OCNCCNc1nc2ccccc2c2[nH]c3ccccc3c12 | 2.1 µM | 11.7 µM | 1.76 µM | > 50 µM | 1.26 µM | 3.66 µM |  |  | 1.55 µM | 4.46 µM | 0.441 µM | 1.39 µM | 0.879 µM | 2.11 µM | 1.42 µM | 6.71 µM | 1.18 µM | 3.25 µM | 1.92 µM | 0.371 µM
9 | CN1CCN(c2nc(-c3ccncc3)nc3sc4c(c23)CCCCCC4)CC1 |  |  | 4.94 µM | 17.2 µM | 5.64 µM | 22 µM | 5.32 µM | 18 µM | 1.06 µM | 7.56 µM | 8.23 µM | 20.5 µM | 4.71 µM | 18.2 µM | 11.3 µM | 24.3 µM |  |  | 19.4 µM | 6.5 µM
10 | CC(=O)OC1CC2C(=O)C(=O)C1(C)C2(C)C (stereo not drawn) |  | > 100 µM |  | > 100 µM |  | > 100 µM |  | > 100 µM |  | > 100 µM |  |  |  | > 100 µM |  | > 100 µM |  | > 100 µM | > 100 µM | 
11 | Cc1cc(C(O)CN(C)C)cc2c1ccc1cc(C(C)C)ccc12 (stereo not drawn) | 2.07 µM | 4.75 µM | 1.73 µM | 3.32 µM | 3.19 µM | 20.6 µM | 2.02 µM | 4.03 µM | 2.36 µM | 11.7 µM |  |  | 2.24 µM | 5.77 µM | 1.81 µM | 3.61 µM | 3.39 µM | 17.9 µM | 3.08 µM | 1.59 µM
12 | CC1OC(OC2CCC3(C=O)C4CCC5(C)C(C6=CC(=O)OC6)CCC5(O)C4CCC3(O)C2)C(O)C(O)C1O (stereo not drawn) |  | 0.0657 µM |  | 0.0025 µM |  | 3.74e-05 µM |  |  |  | 0.000154 µM |  | 6.73e-05 µM |  | 0.0025 µM |  | 9.68e-05 µM |  | 3.38e-05 µM | 3.85e-05 µM | 
13 | CO[C@@]12[C@@H]3NC3CN1C1=C(C(=O)C(N)=C(C)C1=O)[C@@H]2COC(N)=O (stereo partly drawn) |  |  | 0.55 µM | 2.3 µM |  | > 40.9 µM |  | 1.82 µM |  | 1.21 µM |  | 2.06 µM | 2.02 µM | 37.1 µM | 0.807 µM | > 100 µM | 3.09 µM | 20.2 µM | 8.21 µM | 

Source: PubChem BioAssay (NCI)
